Data published in PubChem BioAssay AID1918994 (Molecular Pharmacology Branch, DTP, NCI, 2023).

Tested on: 292921-168-R-J2-PDC complex spheroid growth
Test: Anticancer human tumor 292921-168-R-J2-PDC patient-derived pancreatic carcinoma cell line growth inhibition [AhR]
Conditions: for IC50: curve of first compound; for viability, T/C: stronger effect = lower value
Procedure, shortened: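 Agents were dosed in half-log steps down from roughly clinical Cmax, or from 10 microM where Cmax was unknown, alone and with AhR antagonists. Read-out: percent test/control growth of tumor spheroids containing HUVEC and MSC stromal cells.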

[1] = second compound 0.1 µM, first compound 0.000949 µM
[2] = second compound 0.1 µM, first compound 0.003 µM
[3] = second compound 0.1 µM, first compound 0.00949 µM
[4] = second compound 0.1 µM, first compound 0.03 µM
[5] = second compound 0.1 µM, first compound 0.0949 µM
[6] = second compound 0.1 µM, first compound 0.3 µM
[7] = second compound 0.316 µM, first compound 0.000949 µM
[8] = second compound 0.316 µM, first compound 0.003 µM
[9] = second compound 0.316 µM, first compound 0.00949 µM
[10] = second compound 0.316 µM, first compound 0.03 µM
[11] = second compound 0.316 µM, first compound 0.0949 µM
[12] = second compound 0.316 µM, first compound 0.3 µM
[13] = second compound 1 µM, first compound 0.000949 µM
[14] = second compound 1 µM, first compound 0.003 µM
[15] = second compound 1 µM, first compound 0.00949 µM
[16] = second compound 1 µM, first compound 0.03 µM
[17] = second compound 1 µM, first compound 0.0949 µM
[18] = second compound 1 µM, first compound 0.3 µM
[19] = second compound 3.16 µM, first compound 0.000949 µM
[20] = second compound 3.16 µM, first compound 0.003 µM
[21] = second compound 3.16 µM, first compound 0.00949 µM
[22] = second compound 3.16 µM, first compound 0.03 µM
[23] = second compound 3.16 µM, first compound 0.0949 µM
[24] = second compound 3.16 µM, first compound 0.3 µM
[25] = second compound 10 µM, first compound 0.000949 µM
[26] = second compound 10 µM, first compound 0.003 µM
[27] = second compound 10 µM, first compound 0.00949 µM
[28] = second compound 10 µM, first compound 0.03 µM
[29] = second compound 10 µM, first compound 0.0949 µM
[30] = second compound 10 µM, first compound 0.3 µM
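Further: spheroids exposed to compounds for seven days after three days of growth.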

`CC(C)CC(NC(=O)C(Cc1ccccc1)NC(=O)c1cnccn1)B(O)O` (stereo not given) + Cc1ccccc1N=Nc1ccc(NC(=O)c2ccnn2C)c(C)c1 gave an IC50 (second compound 0.1 µM) of 6.4 nM, an IC50 (second compound 0.316 µM) of 6.09 nM and an IC50 (second compound 1 µM) of 5.95 nM. The IC50 (second compound 3.16 µM) was 5.13 nM, the IC50 (second compound 10 µM) was 3.97 nM and the viability, T/C [1] was 91.6%. It also gave a viability, T/C [2] of 110%, a viability, T/C [3] of 23.4% and a viability, T/C [4] of 1.67%. It also gave a viability, T/C [5] of 0.43%, a viability, T/C [6] of 0.32% and a viability, T/C [7] of 82%. For the same molecule, the viability, T/C [8] was 102%, the viability, T/C [9] was 23.9% and the viability, T/C [10] was 1.24%. It also gave a viability, T/C [11] of 3.16%, a viability, T/C [12] of 0.68% and a viability, T/C [13] of 82.3%. The viability, T/C [14] was 94.3%, the viability, T/C [15] was 23.8% and the viability, T/C [16] was 1.24%. It also gave a viability, T/C [17] of 0.41%, a viability, T/C [18] of 0.93% and a viability, T/C [19] of 77.5%. The viability, T/C [20] was 82.8%, the viability, T/C [21] was 15.3% and the viability, T/C [22] was 1.68%. The viability, T/C [23] was 2.65%, the viability, T/C [24] was 0.81% and the viability, T/C [25] was 59.9%. For the same molecule, the viability, T/C [26] was 62%, the viability, T/C [27] was 15.7% and the viability, T/C [28] was 1.7%. It also gave a viability, T/C [29] of 1.05% and a viability, T/C [30] of 0.32%.
For `CCc1c2c(nc3ccc(O)cc13)-c1cc3c(c(=O)n1C2)COC(=O)[C@]3(O)CC` + Cc1ccccc1N=Nc1ccc(NC(=O)c2ccnn2C)c(C)c1, the IC50 (second compound 0.1 µM) was 3.86 nM, the IC50 (second compound 0.316 µM) was 3.56 nM and the IC50 (second compound 1 µM) was 3.34 nM. The IC50 (second compound 3.16 µM) was 1.37 nM, the IC50 (second compound 10 µM) was under 0.949 nM and the viability, T/C [1] was 78.2%. For the same molecule, the viability, T/C [2] was 58.5%, the viability, T/C [3] was 20% and the viability, T/C [4] was 7.99%. It also gave a viability, T/C [5] of 5.02%, a viability, T/C [6] of 2.76% and a viability, T/C [7] of 68.3%. The viability, T/C [8] was 55.9%, the viability, T/C [9] was 17.3% and the viability, T/C [10] was 8.17%. The viability, T/C [11] was 3.89%, the viability, T/C [12] was 3.58% and the viability, T/C [13] was 68.6%. The viability, T/C [14] was 53.6%, the viability, T/C [15] was 18.9% and the viability, T/C [16] was 9.76%. The viability, T/C [17] was 5.35%, the viability, T/C [18] was 2.94% and the viability, T/C [19] was 54.4%. For the same molecule, the viability, T/C [20] was 40.6%, the viability, T/C [21] was 16% and the viability, T/C [22] was 9.67%. For the same molecule, the viability, T/C [23] was 5.09%, the viability, T/C [24] was 3.01% and the viability, T/C [25] was 47.4%. The viability, T/C [26] was 40.9%, the viability, T/C [27] was 17.5% and the viability, T/C [28] was 10.8%. The viability, T/C [29] was 5.21% and the viability, T/C [30] was 3.01%.
Molecule `COc1cc(Nc2ncc3c(n2)-c2ccc(Cl)cc2C(c2c(F)cccc2OC)=NC3)ccc1C(=O)O` + Cc1ccccc1N=Nc1ccc(NC(=O)c2ccnn2C)c(C)c1 has an IC50 (second compound 0.1 µM) of under 31.6 nM, an IC50 (second compound 0.316 µM) of under 31.6 nM and an IC50 (second compound 1 µM) of under 31.6 nM. The IC50 (second compound 3.16 µM) was under 31.6 nM, the IC50 (second compound 10 µM) was under 31.6 nM and the viability, T/C (second compound 0.1 µM, first compound 0.0316 µM) was 45.7%. For the same molecule, the viability, T/C (second compound 0.1 µM, first compound 0.1 µM) was 37.9%, the viability, T/C (second compound 0.1 µM, first compound 0.316 µM) was 53.5% and the viability, T/C (second compound 0.1 µM, first compound 1 µM) was 45.1%. The viability, T/C (second compound 0.1 µM, first compound 3.16 µM) was 39.8%, the viability, T/C (second compound 0.1 µM, first compound 10 µM) was 29.1% and the viability, T/C (second compound 0.316 µM, first compound 0.0316 µM) was 42.2%. It also gave a viability, T/C (second compound 0.316 µM, first compound 0.1 µM) of 42.6%, a viability, T/C (second compound 0.316 µM, first compound 0.316 µM) of 43% and a viability, T/C (second compound 0.316 µM, first compound 1 µM) of 41%. It also gave a viability, T/C (second compound 0.316 µM, first compound 3.16 µM) of 36.8%, a viability, T/C (second compound 0.316 µM, first compound 10 µM) of 30.3% and a viability, T/C (second compound 1 µM, first compound 0.0316 µM) of 46.2%. The viability, T/C (second compound 1 µM, first compound 0.1 µM) was 34.2%, the viability, T/C (second compound 1 µM, first compound 0.316 µM) was 45.8% and the viability, T/C (second compound 1 µM, first compound 1 µM) was 42.7%. The viability, T/C (second compound 1 µM, first compound 3.16 µM) was 40.9%, the viability, T/C (second compound 1 µM, first compound 10 µM) was 24% and the viability, T/C (second compound 3.16 µM, first compound 0.0316 µM) was 32.8%. The viability, T/C (second compound 3.16 µM, first compound 0.1 µM) was 35%, the viability, T/C (second compound 3.16 µM, first compound 0.316 µM) was 40.6% and the viability, T/C (second compound 3.16 µM, first compound 1 µM) was 36.5%. For the same molecule, the viability, T/C (second compound 3.16 µM, first compound 3.16 µM) was 34.8%, the viability, T/C (second compound 3.16 µM, first compound 10 µM) was 23.1% and the viability, T/C (second compound 10 µM, first compound 0.0316 µM) was 34%. The viability, T/C (second compound 10 µM, first compound 0.1 µM) was 35.5%, the viability, T/C (second compound 10 µM, first compound 0.316 µM) was 33.4% and the viability, T/C (second compound 10 µM, first compound 1 µM) was 33.8%. It also gave a viability, T/C (second compound 10 µM, first compound 3.16 µM) of 30% and a viability, T/C (second compound 10 µM, first compound 10 µM) of 20.5%.
